Source: patent US20020026053A1, “Novel 3-(substituted) -2- indolinones compounds and use thereof as inhibitors of protein kinase activity” (priority 1997, published 2002)

Target: T1, Met receptor (EGFR/Met chimeric cells, EMR) (Homo sapiens, UniProt P08581)
T1 construct: expressed in transfected cells; the other entry of the earlier key: EGFR (P00533, Epidermal growth factor receptor)
Assay: Met Autophosphorylation Assay
Type: biochemical
Method in brief: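 Met phosphorylation was measured by capture ELISA. Lysates (90 μg/100 μl, HNTG plus 1 mM PMSF) from transiently transfected EGFR/Met chimera (EMR) cells were bound for 60 min at room temperature to wells holding rabbit anti-Met (C-28) on goat anti-rabbit coat. Phosphotyrosine was the read-out.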

T1 sequence (P08581 with tags, fused parts or gaps): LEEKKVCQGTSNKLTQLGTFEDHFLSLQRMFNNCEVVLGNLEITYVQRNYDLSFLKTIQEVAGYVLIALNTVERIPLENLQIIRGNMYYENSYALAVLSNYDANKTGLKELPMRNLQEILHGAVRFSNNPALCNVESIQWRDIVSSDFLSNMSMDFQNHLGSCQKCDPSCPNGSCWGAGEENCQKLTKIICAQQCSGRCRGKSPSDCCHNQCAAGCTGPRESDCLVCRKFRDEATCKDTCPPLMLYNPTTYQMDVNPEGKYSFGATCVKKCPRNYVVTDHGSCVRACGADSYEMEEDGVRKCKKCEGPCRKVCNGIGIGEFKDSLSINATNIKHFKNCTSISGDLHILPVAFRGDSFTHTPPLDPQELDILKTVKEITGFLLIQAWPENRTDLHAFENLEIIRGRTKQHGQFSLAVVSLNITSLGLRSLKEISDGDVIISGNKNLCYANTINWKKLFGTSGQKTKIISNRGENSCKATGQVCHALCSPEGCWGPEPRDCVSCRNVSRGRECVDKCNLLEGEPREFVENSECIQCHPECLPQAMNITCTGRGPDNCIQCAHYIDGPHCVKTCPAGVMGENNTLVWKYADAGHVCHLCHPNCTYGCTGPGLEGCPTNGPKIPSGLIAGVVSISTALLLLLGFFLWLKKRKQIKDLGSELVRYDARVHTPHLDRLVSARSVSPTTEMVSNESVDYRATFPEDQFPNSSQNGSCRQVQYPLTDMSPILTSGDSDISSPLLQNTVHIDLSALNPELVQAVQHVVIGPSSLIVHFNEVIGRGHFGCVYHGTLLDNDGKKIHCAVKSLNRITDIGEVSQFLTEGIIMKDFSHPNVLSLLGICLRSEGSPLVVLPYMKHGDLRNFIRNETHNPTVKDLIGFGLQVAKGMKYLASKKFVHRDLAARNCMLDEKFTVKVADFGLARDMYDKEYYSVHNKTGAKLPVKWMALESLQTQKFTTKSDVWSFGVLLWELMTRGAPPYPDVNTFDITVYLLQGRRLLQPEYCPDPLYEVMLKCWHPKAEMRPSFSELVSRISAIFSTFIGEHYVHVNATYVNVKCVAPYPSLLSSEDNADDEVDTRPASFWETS

Structure (SMILES) | Met Kinase % Inhibition (P.130)
O=C1Nc2ccc(CCCl)cc2C1=Cc1cccc(C(F)(F)F)c1 [10735/G05] | 22.2%
O=C1Nc2ccc(CCCl)cc2C1=Cc1cc(C(F)(F)F)cc(C(F)(F)F)c1 [10735/G06] | 36.1%
